The values below come from US7704992B2, “Hepatitis C virus inhibitors” (Bristol-Myers Squibb Company, priority 2008, dated 2010).

Read-outs that look alike come from different tables or passages of the source.

The experiment relates to HCV 1b-377-neo replicon cells. Kind of experiment: HCV Replicon assay, HCV 1b genotype. It is filed as cell-based. The conditions noted are these: Hepatitis C virus. The procedure: An HCV Replicon assay was utilized in the present disclosure, and was prepared, conducted and validated as described in commonly owned PCT/US2006/022197 and in O'Boyle et. al. Antimicrob Agents Chemother. 2005 April; 49(4): 1346-53.
HCV 1b-377-neo replicon cells were used to test the currently described compound series as well as cells resistant to compound A containing a Y2065H mutation in NS5A (described in application PCT/US2006/022197). The compounds tested were determined to have more than 10-fold less inhibitory activity on cells containing the mutation than wild-type cells indicating a related mechanism of action between the two compound series. Thus, the compounds of the present disclosure can be effective to inhibit the function of the HCV NS5A protein and are understood to be as effective in combinations as previously described in application PCT/US2006/022197 and commonly owned WO/04014852. Further, the compounds of the present disclosure can be effective against the HCV 1b genotype. It should also be understood that the compounds of the present disclosure can inhibit multiple genotypes of HCV. […] In one embodiment compounds of the present disclosure are active against the 1a, 1b, 2a, 2b, 3a, 4a, and 5a genotypes.
On the technique in general: A replicon is a self-replicating genome or part of one, used to study replication in cells.

As to `COCCn1c2cc(-c3cnc([C@@H]4CCCN4C(=O)[C@H](C)NC(=O)OC)[nH]3)ccc2c2ccc(-c3cnc([C@@H]4CCCN4C(=O)[C@H](C)NC(=O)OC)[nH]3)cc21` [Example 34, methyl ((1S)-2-((2S)-2-(5-(7-(2-((2S)-1-(N-(methoxycarbonyl)-L-alanyl)-2-pyrrolidinyl)-1H-imidazol-5-yl)-9-(2-methoxyethyl)-9H-carbazol-2-yl)-1H-imidazol-2-yl)-1-pyrrolidinyl)-1-methyl-2-oxoethyl)carbamate], the concentration for a half-maximal effect (EC50) (class symbol, read-out: EC50 range against HCV 1b) fell in the range of 1000 to 99000 pM.

Consider `COCCn1c2cc(-c3cnc([C@@H]4CCCN4C(=O)[C@@H](NC(=O)OC)[C@@H](C)OC)[nH]3)ccc2c2ccc(-c3cnc([C@@H]4CCCN4C(=O)[C@@H](NC(=O)OC)[C@@H](C)OC)[nH]3)cc21` [Example 35, methyl ((1S,2R)-2-methoxy-1-(((2S)-2-(5-(7-(2-((2S)-1-(N-(methoxycarbonyl)-O-methyl-L-threonyl)-2-pyrrolidinyl)-1H-imidazol-5-yl)-9-(2-methoxyethyl)-9H-carbazol-2-yl)-1H-imidazol-2-yl)-1-pyrrolidinyl)carbonyl)propyl)carbamate], for which, where the note is “value in pM, read-out: EC50 value against HCV 1b”, the concentration for a half-maximal effect (EC50) came out at 662 pM.

In general, EC50 refers to the concentration that produces a half-maximal response.
